Source: patent US10385103B2, “Cell-permeable (ICP)-SOCS3 recombinant protein and uses thereof” (CELLIVERY THERAPEUTICS, INC., priority 2014, dated 2019)

Test system: RAW 264.7 cells
Assay: Quantitative cell-permeability of FITC-labeled aMTD- or rPeptide-fused CRA recombinant proteins (flow cytometry)
Format: cell-based
Outline: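 Uptake of fluorescently labeled, peptide-fused cargo proteins was quantified by flow cytometry (Guava, Millipore) and analyzed in FlowJo software. RAW 264.7 cells received 10 μM FITC-labeled protein for 1 hour at 37° C., were rinsed three times with cold PBS, and were trypsinized with 0.25% tripsin/EDTA for 20 minutes at 37° C. to remove bound protein before measurement. Permeability was expressed relative to reference proteins.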

[1] = cell-permeability of aMTD-fused CRA recombinant protein relative to negative control (A: rP38)
[2] = cell-permeability of aMTD-fused CRA recombinant protein relative to reference CPP (B: MTM12)
[3] = cell-permeability of aMTD-fused CRA recombinant protein relative to reference CPP (C: MTD85)
[4] = cell-permeability relative to negative control rP38 (A type), aMTD-fused CRA recombinant protein, 10 μM FITC-labeled, 1 hour, 37° C., RAW 264.7 cells
[5] = cell-permeability relative to reference CPP MTD85 (C type), aMTD-fused CRA recombinant protein, 10 μM FITC-labeled, 1 hour, 37° C., RAW 264.7 cells
[6] = cell-permeability relative to reference CPP MTM12 (B type), aMTD-fused CRA recombinant protein, 10 μM FITC-labeled, 1 hour, 37° C., RAW 264.7 cells

Substance	Relative Ratio (Fold) A [1] [Fold]	Relative Ratio (Fold) B [2] [Fold]	Relative Ratio (Fold) C [3] [Fold]	Relative Ratio (Fold) A [4] [Fold]	Relative Ratio (Fold) C [5] [Fold]	Relative Ratio (Fold) B [6] [Fold]	Relative Ratio to aMTD AVE (cell-permeability of rPeptide-fused CRA recombinant protein relative to average of 240 aMTDs, 10 μM FITC-labeled, 1 hour, 37° C., RAW 264.7 cells)
461 (IAAVIVPAVALP; Amino acid Sequence of aMTD461) [compound 461]	19.0	12.7	6.4	–	–	–	–
462 (IAAVLVPAVALP; Amino acid Sequence of aMTD462) [compound 462]	–	–	–	6.3	2.1	4.2	–
463 (AVAILVPLLAAP; Amino acid Sequence of aMTD463) [compound 463]	17.6	11.7	5.9	–	–	–	–
464 (AVVILVPLAAAP; Amino acid Sequence of aMTD464) [compound 464]	22.3	14.9	7.5	–	–	–	–
465 (IAAVIVPVAALP; Amino acid Sequence of aMTD465) [compound 465]	7.4	4.9	2.5	–	–	–	–
466 (IIAAAAPLAIIP; Amino acid Sequence of rPeptide ID 466) [compound 466]	–	–	–	–	–	–	0.52
482 (ILAVAAIPVAVP; Amino acid Sequence of aMTD482) [compound 482]	15.8	10.6	5.3	–	–	–	–
483 (ILAAAIIPAALP; Amino acid Sequence of aMTD483) [compound 483]	–	–	–	6.8	2.3	4.5	–
484 (LAVVLAAPAIVP; Amino acid Sequence of aMTD484) [compound 484]	15.8	10.4	5.3	–	–	–	–
485 (AILAAIVPLAVP; Amino acid Sequence of aMTD485) [compound 485]	–	–	–	6.8	2.3	4.5	–
501 (VIVALAVPALAP; Amino acid Sequence of aMTD501) [compound 501]	21.5	14.4	7.2	–	–	–	–
502 (AIVALAVPVLAP; Amino acid Sequence of aMTD502) [compound 502]	–	–	–	5.6	1.9	3.7	–
504 (LIVALAVPALAP; Amino acid Sequence of aMTD504) [compound 504]	–	–	–	3.3	1.1	2.2	–
505 (AIIIVIAPAAAP; Amino acid Sequence of aMTD505) [compound 505]	12.4	8.3	4.2	–	–	–	–
507 (VAIALAPVVVAP; Amino acid Sequence of aMTD907) [compound 507]	8.1	5.4	2.8	–	–	–	–
521 (LAALIVVPAVAP; Amino acid Sequence of aMTD521) [compound 521]	9.4	6.3	3.2	–	–	–	–
522 (ALLVIAVPAVAP; Amino acid Sequence of aMTD522) [compound 522]	22.7	15.2	7.7	–	–	–	–
524 (AVALIVVPALAP; Amino acid Sequence of aMTD524) [compound 524]	18.3	12.2	6.2	–	–	–	–

Substance	Relative Ratio (Fold) A [1] [Fold]	Relative Ratio (Fold) B [2] [Fold]	Relative Ratio (Fold) C [3] [Fold]	Relative Ratio (Fold) A [4] [Fold]	Relative Ratio (Fold) C [5] [Fold]	Relative Ratio (Fold) B [6] [Fold]	Relative Ratio to aMTD AVE (cell-permeability of rPeptide-fused CRA recombinant protein relative to average of 240 aMTDs, 10 μM FITC-labeled, 1 hour, 37° C., RAW 264.7 cells)
525 (ALAIVVAPVAVP; Amino acid Sequence of aMTD525) [compound 525]	13.8	9.2	4.7	–	–	–	–
541 (LLALIIAPAAAP; Amino acid Sequence of aMTD541) [compound 541]	14.8	9.9	5.0	–	–	–	–
542 (ALALIIVPAVAP; Amino acid Sequence of aMTD542) [compound 542]	16.2	10.8	5.5	–	–	–	–
543 (LLAALIAPAALP; Amino acid Sequence of aMTD543) [compound 543]	11.7	7.9	4.0	–	–	–	–
544 (IVALIVAPAAVP; Amino acid Sequence of aMTD544) [compound 544]	23.4	15.6	7.9	–	–	–	–
545 (VVLVLAAPAAVP; Amino acid Sequence of aMTD545) [compound 545]	34.6	23.1	11.7	–	–	–	–
561 (AAVAIVLPAVVP; Amino acid Sequence of aMTD561) [compound 561]	–	–	–	3.9	1.3	2.6	–
562 (ALIAAIVPALVP; Amino acid Sequence of aMTD562) [compound 562]	32.7	21.8	11.0	–	–	–	–
564 (VAIALIVPALAP; Amino acid Sequence of aMTD564) [compound 564]	43.6	29.1	14.7	–	–	–	–
565 (VAIVLVAPAVAP; Amino acid Sequence of aMTD565) [compound 565]	7.5	5.0	2.5	–	–	–	–
582 (VAVALIVPALAP; Amino acid Sequence of aMTD582) [compound 582]	30.6	20.4	10.3	–	–	–	–
583 (AVILALAPIVAP; Amino acid Sequence of aMTD583) [compound 583]	–	–	–	7.3	2.4	4.8	–
585 (ALIVAIAPALVP; Amino acid Sequence of aMTD585) [compound 585]	–	–	–	6.6	2.2	4.4	–
601 (AAILIAVPIAAP; Amino acid Sequence of aMTD601) [compound 601]	26.8	17.9	9.0	–	–	–	–
602 (VIVALAAPVLAP; Amino acid Sequence of aMTD602) [compound 602]	9.9	5.8	3.4	–	–	–	–
603 (VLVALAAPVIAP; Amino acid Sequence of aMTD603) [compound 603]	54.1	36.1	18.2	–	–	–	–
604 (VALIAVAPAVVP; Amino acid Sequence of aMTD604) [compound 604]	–	–	–	4.3	1.5	2.5	–
605 (VIAAVLAPVAVP; Amino acid Sequence of aMTD605) [compound 605]	11.0	7.4	3.7	–	–	–	–
